This passage reports IC50 and EC50 results from patent US20230391772A1, “METHODS AND COMPOSITIONS FOR TARGETED PROTEIN DEGRADATION” (Ranok Therapeutics (Hangzhou) Co. Ltd., priority 2020, published 2023).

One assay has as its target T1, HSP90a protein (Homo sapiens, UniProt P07900).
T1 construct: purchased BPS Bioscience 50298
The assay is described as follows: HSP90α-binding fluorescent polarization (FP) assay, BODIPY-labeled RNK04010 probe. To be noted: FP competition with RNK04010 (BODIPY-labeled), 5 nM, 300 min at 25° C. How it is done:
HSP90α-Binding Fluorescent Polarization (FP) Assay
Binding of test compounds to HSP90a protein was measured by fluorescent polarization (FP) using the HSP90a (N-terminal) Assay Kit (BPS Bioscience, #50298), following the manufacturer's instructions, except as noted. Fluorescently labeled HSP90-binding compounds, either the provided FITC-geldanamycin (5 nM final concentration) or RNK04010, a triazolone-based HSP90 binding small molecule labeled with BODIPY through a piperizine-phenyl linker (5 nM final concentration) were employed. A 2.5-fold serial dilution of each test compound ranging from 20 μM to 5.2 nM was assayed for binding to HSP90a. After the final step of adding HSP90a protein to each assay well, plates were mixed by brief shaking, incubated at 25° C. for 120 min for FITC-geldanamycin or 300 min for RNK04010, and fluorescence was measured using a PerkinElmer EnVision Plate Reader.

The subject of assay [1] is MIA PaCa-2 human pancreatic carcinoma. The assay is described as follows: MIA PaCa-2 CCK-8 proliferation assay. To be noted: Homo sapiens, MIA PaCa-2, 72 h, MIA PaCa-2 cells. The assay is classed as cell-based. How it is done:
The following cancer cell lines were employed: BT-474 human breast carcinoma (ATCC, #HTB-20); MIA PaCa-2 human pancreatic carcinoma [2 copies KRAS(G12C)](ATCC, #CRL-1420); NCI-H23 human non-small cell lung cancer [1 copy KRAS(G12C)](ATCC, #CRL-5800); NCI-H358 human non-small cell lung cancer [1 copy KRAS(G12C)](ATCC, #CRL-5807); LU65A human lung carcinoma (Pharmaron, Beijing, China). Cell lines were cultured essentially according to ATCC and Pharmaron recommendations.
Cancer Cell Line Proliferation (CCK-8) Assays
3-fold serial dilutions of each test compound were prepared ranging from 20 μM to 1.02 nM.
% Inhibition=100−(D−B)/(S−B)*100%. • S: Absorbance of cells treated with DMSO • D: Absorbance of compound-treated cells • B: Absorbance of medium with DMSO without cells

Another assay deals with KRAS(G12C) (Homo sapiens, UniProt P01116, G12C). The assay can be described thus: KRAS(G12C)/SOS1 homogeneous time-resolved fluorescence (HTRF) assay. Further details: purchased Cisbio 63ADK000CB16PEG. As to conditions: absence of GTP, 4° C. for 3 hr, read-out: KRAS (G12C) binding. On the procedure:
KRAS(G12C)/SOS1 Homogeneous Time-Resolved Fluorescence (HTRF) Assay
Binding of test compounds to KRAS(G12C) protein, which in turn blocks KRAS(G12C) interaction with the SOS1 protein, was measured in the absences of GTP by homogeneous time-resolved fluorescence (HTRF) using the KRAS-G12C/SOS1 Binding Assay Kit (Cisbio, #63ADK000CB16PEG), following the manufacturer's instructions, except as noted. 3-fold serial dilutions of each test compound were prepared ranging from […] to 1.02 nM. The test compound was mixed and incubated with reaction components, incubated in a sealed plate at 4° C. for 3 hr and fluorescence was measured using a PerkinElmer Envision plate reader.
(In TR-FRET formats the signal depends on donor and acceptor labels being close together.)

KRAS(G12C), sequence (P01116 1-188 isoform P01116-2 G12C): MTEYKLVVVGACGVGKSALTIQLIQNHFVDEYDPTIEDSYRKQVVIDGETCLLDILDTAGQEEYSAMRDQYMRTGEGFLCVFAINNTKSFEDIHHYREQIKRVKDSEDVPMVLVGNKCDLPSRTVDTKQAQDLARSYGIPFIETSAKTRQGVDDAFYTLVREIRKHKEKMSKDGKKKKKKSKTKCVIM

Turning to `C=CC(=O)N1CCN(c2nc(OCC3CN(C(=O)C4CCN(Cc5ccc(-n6c(O)nnc6-c6cc(C(C)C)c(O)cc6O)cc5)CC4)C3)nc3c2CCN(c2cccc4cccc(Cl)c24)C3)C[C@@H]1CC#N` [Compound 188, (S)-2-(1-acryloyl-4-(7-(8-chloronaphthalen-1-yl)-2-((1-(1-(4-(3-(2,4-dihydroxy-5-isopropylphenyl)-5-hydroxy-4H-1,2,4-triazol-4-yl)benzyl)piperidine-4-carbonyl)azetidin-3-yl)methoxy)-5,6,7,8-tetrahydropyrido[3,4-d]pyrimidin-4-yl)piperazin-2-yl)acetonitrile, trifluoroacetic acid], the IC50 on HSP90a protein was under 100 nM; on KRAS(G12C), over 1000 nM. The EC50 in assay [1] is 100 to 1000 nM.
As for `C=CC(=O)N1CCN(c2nc(OC[C@@H]3CCN3C(=O)C3CCN(Cc4ccc(-n5c(O)nnc5-c5cc(C(C)C)c(O)cc5O)cc4)CC3)nc3c2CCN(c2cccc4cccc(Cl)c24)C3)C[C@@H]1CC#N` [Compound 189, 2-((S)-1-acryloyl-4-(7-(8-chloronaphthalen-1-yl)-2-(((S)-1-(1-(4-(3-(2,4-dihydroxy-5-isopropylphenyl)-5-hydroxy-4H-1,2,4-triazol-4-yl)benzyl)piperidine-4-carbonyl)azetidin-2-yl)methoxy)-5,6,7,8-tetrahydropyrido[3,4-d]pyrimidin-4-yl)piperazin-2-yl)acetonitrile, trifluoroacetic acid], the IC50 at HSP90a protein is under 100 nM; at KRAS(G12C) it was over 1000 nM. Further, the EC50 in assay [1] was over 1000 nM.
Take `C=CC(=O)N1CCN(c2nc(OC[C@@H]3C[C@@H](NC(=O)C4CCN(Cc5ccc(-n6c(C(N)=O)nnc6-c6cc(C(C)C)c(O)cc6O)cc5)CC4)CN3C)nc3c2CCN(c2cccc4cccc(Cl)c24)C3)C[C@@H]1CC#N` [Compound 194, N-((3R,5S)-5-(((4-((S)-4-acryloyl-3-(cyanomethyl)piperazin-1-yl)-7-(8-chloronaphthalen-1-yl)-5,6,7,8-tetrahydropyrido[3,4-d]pyrimidin-2-yl)oxy)methyl)-1-methylpyrrolidin-3-yl)-1-(4-(3-carbamoyl-5-(2,4-dihydroxy-5-isopropylphenyl)-4H-1,2,4-triazol-4-yl)benzyl)piperidine-4-carboxamide]: the IC50 at HSP90a protein is under 100 nM; on KRAS(G12C) it was 100 to 1000 nM. The EC50 in assay [1] was in the range of 100 to 1000 nM.
As to `C=CC(=O)N1CCN(c2nc(OCCN3CCN(C(=O)c4ccc(-n5c(O)nnc5-c5cc(C(C)C)c(O)cc5O)cc4)CC3)nc3c2CCN(c2cccc4cccc(Cl)c24)C3)C[C@@H]1CC#N` [Compound 195, (S)-2-(1-acryloyl-4-(7-(8-chloronaphthalen-1-yl)-2-(2-(4-(4-(3-(2,4-dihydroxy-5-isopropylphenyl)-5-hydroxy-4H-1,2,4-triazol-4-yl)benzoyl)piperazin-1-yl)ethoxy)-5,6,7,8-tetrahydropyrido[3,4-d]pyrimidin-4-yl)piperazin-2-yl)acetonitrile, trifluoroacetic acid], the IC50 on HSP90a protein was under 100 nM; at KRAS(G12C), over 1000 nM. The EC50 in assay [1] was over 1000 nM.
Turning to `C=CC(=O)N1CCN(c2nc(OC[C@@H]3C[C@@H](NC(=O)c4ccc(-n5c(O)nnc5-c5cc(C(C)C)c(O)cc5O)cc4)CN3C)nc3c2CCN(c2cccc4cccc(Cl)c24)C3)C[C@@H]1CC#N` [Compound 196, N-((3R,5S)-5-(((4-((S)-4-acryloyl-3-(cyanomethyl)piperazin-1-yl)-7-(8-chloronaphthalen-1-yl)-5,6,7,8-tetrahydropyrido[3,4-d]pyrimidin-2-yl)oxy)methyl)-1-methylpyrrolidin-3-yl)-4-(3-(2,4-dihydroxy-5-isopropylphenyl)-5-hydroxy-4H-1,2,4-triazol-4-yl)benzamide, trifluoroacetic acid], the IC50 is under 100 nM on HSP90a protein and 100 to 1000 nM at KRAS(G12C). For the same compound, the EC50 in assay [1] was over 1000 nM.
Turning to `C=CC(=O)N1CCN(c2nc(OC[C@@H]3CN(C(=O)C4CCN(Cc5ccc(-n6c(C(N)=O)nnc6-c6cc(C(C)C)c(O)cc6O)cc5)CC4)CCN3C)nc3c2CCN(c2cccc4cccc(Cl)c24)C3)C[C@@H]1CC#N` [Compound 197, 4-(4-((4-((S)-3-(((4-((S)-4-acryloyl-3-(cyanomethyl)piperazin-1-yl)-7-(8-chloronaphthalen-1-yl)-5,6,7,8-tetrahydropyrido[3,4-d]pyrimidin-2-yl)oxy)methyl)-4-methylpiperazine-1-carbonyl)piperidin-1-yl)methyl)phenyl)-5-(2,4-dihydroxy-5-isopropylphenyl)-4H-1,2,4-triazole-3-carboxamide, trifluoroacetic acid], the IC50 was under 100 nM at HSP90a protein and over 1000 nM at KRAS(G12C). In assay [1], this compound yielded an EC50 of over 1000 nM.
Consider `C=CC(=O)N1CCN(c2nc(OC[C@@H]3C[C@@H](NC(=O)C4CCN(Cc5ccc(-n6c(O)nnc6-c6cc(C)c(O)cc6O)cc5)CC4)CN3C)nc3c2CCN(c2cccc4cccc(Cl)c24)C3)C[C@@H]1CC#N` [Compound 198, N-((3R,5S)-5-(((4-((S)-4-acryloyl-3-(cyanomethyl)piperazin-1-yl)-7-(8-chloronaphthalen-1-yl)-5,6,7,8-tetrahydropyrido[3,4-d]pyrimidin-2-yl)oxy)methyl)-1-methylpyrrolidin-3-yl)-1-(4-(3-(2,4-dihydroxy-5-methylphenyl)-5-hydroxy-4H-1,2,4-triazol-4-yl)benzyl)piperidine-4-carboxamide, trifluoroacetic acid], for which the figures for the IC50 at HSP90a protein and on KRAS(G12C) were under 100 nM and 100 to 1000 nM, respectively. In addition, in assay [1], the EC50 was in the range of 100 to 1000 nM.
On to `C=CC(=O)N1CCN(c2nc(OC[C@@H]3C[C@@H](NC(=O)C4CCN(Cc5ccc(-n6c(C(=O)NCC(F)(F)F)nnc6-c6cc(C(C)C)c(O)cc6O)cc5)CC4)CN3C)nc3c2CCN(c2cccc4cccc(Cl)c24)C3)C[C@@H]1CC#N` [Compound 200, N-((3R,5S)-5-(((4-((S)-4-acryloyl-3-(cyanomethyl)piperazin-1-yl)-7-(8-chloronaphthalen-1-yl)-5,6,7,8-tetrahydropyrido[3,4-d]pyrimidin-2-yl)oxy)methyl)-1-methylpyrrolidin-3-yl)-1-(4-(3-(2,4-dihydroxy-5-isopropylphenyl)-5-((2,2,2-trifluoroethyl)carbamoyl)-4H-1,2,4-triazol-4-yl)benzyl)piperidine-4-carboxamide], for which the IC50 on HSP90a protein and at KRAS(G12C) was under 100 nM throughout. In assay [1], this compound returned an EC50 of under 100 nM.
Regarding `C=CC(=O)N1CCN(c2nc(OC[C@@H]3C[C@@H](NC(=O)C4CCN(Cc5ccc(-n6c(C(=O)NCCN7CCN(C)CC7)nnc6-c6cc(C(C)C)c(O)cc6O)cc5)CC4)CN3C)nc3c2CCN(c2cccc4cccc(Cl)c24)C3)C[C@@H]1CC#N` [Compound 201, N-((3R,5S)-5-(((4-((S)-4-acryloyl-3-(cyanomethyl)piperazin-1-yl)-7-(8-chloronaphthalen-1-yl)-5,6,7,8-tetrahydropyrido[3,4-d]pyrimidin-2-yl)oxy)methyl)-1-methylpyrrolidin-3-yl)-1-(4-(3-(2,4-dihydroxy-5-isopropylphenyl)-5-((2-(4-methylpiperazin-1-yl)ethyl)carbamoyl)-4H-1,2,4-triazol-4-yl)benzyl)piperidine-4-carboxamide], the IC50 was under 100 nM on HSP90a protein and 100 to 1000 nM at KRAS(G12C). This compound registered an EC50 in assay [1] of over 1000 nM.
`C=CC(=O)N1CCN(c2nc(OCCN3CCN(C4CCN(Cc5ccc(-n6c(O)nnc6-c6cc(C)c(O)cc6O)cc5)CC4)CC3)nc3c2CCN(c2cccc4cccc(Cl)c24)C3)C[C@@H]1CC#N` [Compound 267, (S)-2-(1-acryloyl-4-(7-(8-chloronaphthalen-1-yl)-2-(2-(4-(1-(4-(3-(2,4-dihydroxy-5-methylphenyl)-5-hydroxy-4H-1,2,4-triazol-4-yl)benzyl)piperidin-4-yl)piperazin-1-yl)ethoxy)-5,6,7,8-tetrahydropyrido[3,4-d]pyrimidin-4-yl)piperazin-2-yl)acetonitrile] yielded a 50% effective concentration (EC50) in assay [1] of over 1000 nM. At KRAS(G12C), the IC50 was under 100 nM.

By EC50 is commonly meant the concentration needed to bring the measured effect to its halfway point.
